Measured values: patent US6444850B1, “Fungicidial compounds having a fluorovinyloxphyenyl moiety and process for the preparation thereof” (priority 1997, dated 2002)

Key:
[1] = test system: Rhizoctonia solani AG-1; experiment: Fungicidal activity against rice sheath blight (RSB) disease; settings: 50 ppm, control value
Description: 50 ml of the resulting solution was sprayed on leaves of a host plant. The plant was kept at room temperature for 24 hours to let the solvent evaporate, and then, a pathogenic fungus was inoculated thereonto. The plant was held in a humidity chamber for 24 hours, transferred to an plant growth room kept at 20 to 27° C. and a relative humidity of 60 to 80% and kept to induce disease. Subsequently, the lesion area(L.A.) attacked by the pathogenic fungus was measured according to a method of Cho(Cho, K. Y., Search Report by Korea Research Institute of Chemical Technology (1989))”. This procedure was repeated twice for each test. 10% Acetone solution containing 250 ppm of Tween-20 was used as a control.
The fungicidal activity of the compound of the present invention is repressed by a control value (C.V.) calculated as; [formula]
Rhizoctonia solani AG-1 was cultured on a PDA medium(potato 200 g, dextrose 20 g, agar 20 g and distilled water 1 l) for 3 days and the agar disc (diameter 0.6 cm) was inoculated and cultured on sterilized wheat bran medium in a 1 l bottle at 26 to 28° C. for 7 days. A mycelial mass was ground using a homogenizer, inoculated uniformly on soil of a pot wherein a Nakdong rice plant having 2 or 3 leaves and an height of 5 cm grew, and kept in humidity polyvinyl chamber for 5 days to induce RSB. L.A. on a leaf sheath was measured to calculate an C.V.

[2] = test system: Pyricularia oryzae Carvara KA301; format: in vivo; settings: for C. V. (%) RCB: 50 ppm, control value, rice blast
[3] = test system: Botrytis cinerae; experiment: Fungicidal activity against cucumber gray mold rot (CGM) disease; format: in vivo; settings: 50 ppm, control value
Description: Botrytis cinerae, which was isolated from cucumber infected thereby, was inoculated on a PDA agar medium and cultured under a 12L/12D cycle at 25° C. for 15 days to form spore. The spores were scraped, filtered through a gauze and then suspended in potato dextrose liquid medium at a concentration of 1×10^6 spore/ml. The spore suspension was sprayed on a cucumber plant having one leaf. The cucumber plant was held in a humidified room at 20° C. for 3 days. L.A. on a leaf was measured to calculate an C.V.

[4] = test system: Phytophthora infestans; format: in vivo; settings: 50 ppm; control value, tomato late blight
[5] = test system: Puccinia recondita; experiment: Fungicidal activity against wheat leaf rust (WLR) disease; format: in vivo; settings: for C. V. (%) WLR: 50 ppm, control value, wheat leaf rust; for C. V. (%), Fungicidal Activities against WLB at 10 ppm: Table 8 (Test Example 5)
[6] = test system: Erysiphae graminis; experiment: Fungicidal activity against barley powdery mildew (BPM) disease; format: in vivo; settings: for C. V. (%) BPM: 50 ppm, control value, barley powdery mildew; for C. V. (%), Fungicidal activities against TLB at 10 ppm: Table 9 (Test Example 6)
Description: Erysiphae graminis was subcultured on a wheat plant in a laboratory. 15 g of barley seeds was sowed in a pot (diameter 6.5 cm) and cultured in a greenhouse for 7 days to obtain a barley plant having only a primary leaf. The barley plant was inoculated with spores by shaking thereover another plant infected by BPM. The inoculated barley plant was cultured in an incubator maintained at a temperature of 22 to 24° C. and a relative humidity of 50% for 7 days to induce BPM. L.A. on the leaf was measured to calculate an C.V.

[7] = 10 ppm, sprayed on Nakdong rice plant, control value from lesion area

SMILES | C. V. (%) RSB [1] | C. V. (%) RCB [2] | C. V. (%) CGM [3] | C. V. (%) TLB [4] | C. V. (%) WLR [5] | C. V. (%) BPM [6] | C. V. (%), Fungicidal activities against TLB at 10 ppm [6] | C. V. (%), Fungicidal Activities against WLB at 10 ppm [5] | C. V. (%) Fungicidal Activities against RCB at 10 ppm [2, 7] | C. V. (%) Fungicidal Activities against RCB at 10 ppm (TABLE 6) [2, 7]
CNC(=O)/C(=C/OC)c1ccccc1COc1cccc(OC(F)=C(c2ccccc2)C(F)(F)F)c1 [Compound 46, (2E)-N-methyl-3-methoxy-2-{2′-{3″-(2′″-fluoro-1′″-trifluoromethylstyryl)-2′″-oxy}phenoxymethyl}phenyl-2-propenoamide] | 20% | 0% | 27% | 11% | 53% | 0% |  |  |  | 
COC=C(C(=O)OC)c1ccccc1COc1cccc(OC(F)=C(c2ccc(C)c(C)c2)C(F)(F)F)c1 [Compound 63] | 40% | 75% | 25% | 25% | 100% | 100% | 100% |  |  | 
CCc1ccc(C(=C(F)Oc2cccc(OCc3ccccc3C(=COC)C(=O)OC)c2)C(F)(F)F)cc1 [Compound 58] | 40% | 90% | 25% | 0% | 100% | 100% | 99% | 95% |  | 
CCc1ccc(C(=C(F)Oc2cccc(OCc3ccccc3C(=NOC)C(=O)OC)c2)C(F)(F)F)cc1 [Compound 60] | 40% | 0% | 0% | 18% | 98% | 100% | 97% | 93% |  | 
COC=C(C(=O)OC)c1ccccc1COc1cccc(OC(F)=C(c2cccc(C)c2)C(F)(F)F)c1 [Compound 49] | 50% | 95% | 41% | 0% | 100% | 100% | 100% | 95% |  | 
CNC(=O)C(=COC)c1ccccc1COc1cccc(OC(F)=C(c2cccc(C)c2)C(F)(F)F)c1 [Compound 50] | 25% | 0% | 5% | 33% | 0% | 0% |  |  |  | 
CON=C(C(=O)OC)c1ccccc1COc1cccc(OC(F)=Cc2ccc(C)c(C)c2)c1 [Compound 15] | 90% | 92% | 15% | 25% | 96% | 100% |  |  |  | 
CNC(=O)C(=NOC)c1ccccc1COc1cccc(OC(F)=C(c2cccc(Cl)c2)C(F)(F)F)c1 [Compound 87] | 0% | 100% | 0% | 0% | 100% | 100% | 100% | 100% | 100% | 100%
CNC(=O)C(=COC)c1ccccc1COc1cccc(OC(F)=Cc2cc(C)c(C)cc2C)c1 [Compound 22] | 26% | 0% | 0% | 25% | 0% | 0% |  |  |  | 
CCOc1ccc(C(=C(F)Oc2cccc(OCc3ccccc3C(=NOC)C(=O)OC)c2)C(F)(F)F)cc1 [Compound 79] | 55% | 0% | 7% | 18% | 100% | 100% | 99% | 96% |  | 
CNC(=O)C(=COC)c1ccccc1COc1cccc(OC(F)=Cc2ccc(C)c(C)c2)c1 [Compound 14] | 5% | 16% | 63% | 20% | 16% | 25% |  |  |  | 
CNC(=O)C(=COC)c1ccccc1COc1cccc(OC(F)=Cc2cccc(F)c2)c1 [Compound 35] | 30% | 15% | 35% | 35% | 40% | 58% |  |  |  | 
